In the assay the test system is CD2F1 mice, L1210 leukemia ip, survival T/C. Put plainly: NCI In Vivo Anticancer Drug Screen. Data for tumor model L1210 Leukemia (intraperitoneal) in CD2F1 (CDF1) mice. To be noted: higher = longer survival. Summed up: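 In this screen, transplantable tumors were grown in mice given either the compound or its vehicle. Results were expressed as the treated measurement relative to the control measurement.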

[1] abbreviates: endpoint: mean survival time, dose: 100.0 mg/kg/injection, schedule: Q04DX002 (ip), vehicle: saline with Tween-80.
Where [2] appears, read: endpoint: mean survival time, dose: 100.0 mg/kg/injection, schedule: Q04DX003 (ip), vehicle: saline with Tween-80.
[3] abbreviates: endpoint: mean survival time, dose: 200.0 mg/kg/injection, schedule: Q04DX003 (ip), vehicle: saline with Tween-80.
Where [4] appears, read: endpoint: mean survival time, dose: 400.0 mg/kg/injection, schedule: Q04DX003 (ip), vehicle: saline with Tween-80.
[5] abbreviates: endpoint: mean survival time, dose: 100.0 mg/kg/injection, schedule: Q01DX009 (ip), vehicle: saline with Tween-80.
The mark [6] stands for this setting: endpoint: mean survival time, dose: 200.0 mg/kg/injection, schedule: Q01DX009 (ip), vehicle: saline with Tween-80.
Where [7] appears, read: endpoint: mean survival time, dose: 400.0 mg/kg/injection, schedule: Q01DX009 (ip), vehicle: saline with Tween-80.
Setting [8] is: endpoint: mean survival time, dose: 100.0 mg/kg/injection, schedule: Q01DX001 (ip), vehicle: saline with Tween-80.
Where [9] appears, read: endpoint: mean survival time, dose: 200.0 mg/kg/injection, schedule: Q01DX001 (ip), vehicle: saline with Tween-80.
The mark [10] stands for this setting: endpoint: mean survival time, dose: 400.0 mg/kg/injection, schedule: Q01DX001 (ip), vehicle: saline with Tween-80.
The mark [11] stands for this setting: endpoint: mean survival time, dose: 12.5 mg/kg/injection, schedule: Q01DX009 (ip), vehicle: saline with Tween-80.
Where [12] appears, read: endpoint: mean survival time, dose: 25.0 mg/kg/injection, schedule: Q01DX009 (ip), vehicle: saline with Tween-80.
Where [13] appears, read: endpoint: mean survival time, dose: 50.0 mg/kg/injection, schedule: Q01DX009 (ip), vehicle: saline with Tween-80.

Values joined by “and” are separate entries in the source; they are usually repeats but may differ in a detail not shown here. Equal entries are not always repeated. Toxic doses and inconclusive results are not listed.

Consider `O=c1[nH]cnc2c1nc(NCc1ccccc1)n2C1OC(CO)C(O)C1O` (configuration not stated), for which the T/C is, setting by setting: (endpoint: mean survival time, dose: 12.5 mg/kg/injection, schedule: Q01DX005 (ip), vehicle: distilled water + Tween-80) 98 % of control; (endpoint: mean survival time, dose: 25.0 mg/kg/injection, schedule: Q01DX005 (ip), vehicle: distilled water + Tween-80) 96 % of control; (endpoint: mean survival time, dose: 50.0 mg/kg/injection, schedule: Q01DX005 (ip), vehicle: distilled water + Tween-80) 96 % of control; (endpoint: mean survival time, dose: 100.0 mg/kg/injection, schedule: Q01DX005 (ip), vehicle: distilled water + Tween-80) 101 % of control; (endpoint: mean survival time, dose: 150.0 mg/kg/injection, schedule: Q01DX005 (ip), vehicle: distilled water + Tween-80) 98 % of control.

For the molecule `CCOC(=O)c1cc([N+](=O)[O-])c(Sc2ncnc3nc[nH]c23)c([N+](=O)[O-])c1`, the T/C was 104 % of control (endpoint: mean survival time, dose: 0.63 mg/kg/injection, schedule: Q01DX005 (ip), vehicle: other); 109 % of control (endpoint: mean survival time, dose: 1.25 mg/kg/injection, schedule: Q01DX005 (ip), vehicle: other); 101 % of control (endpoint: mean survival time, dose: 2.5 mg/kg/injection, schedule: Q01DX005 (ip), vehicle: other); 114 % of control (endpoint: mean survival time, dose: 5.0 mg/kg/injection, schedule: Q01DX005 (ip), vehicle: other); 114 % of control (endpoint: mean survival time, dose: 10.0 mg/kg/injection, schedule: Q01DX005 (ip), vehicle: other); 113 % of control (endpoint: mean survival time, dose: 20.0 mg/kg/injection, schedule: Q01DX005 (ip), vehicle: other). The T/C reads like this: (endpoint: mean survival time, dose: 40.0 mg/kg/injection, schedule: Q01DX005 (ip), vehicle: other) 120 % of control; (endpoint: mean survival time, dose: 80.0 mg/kg/injection, schedule: Q01DX005 (ip), vehicle: other) 117 % of control.

`N#CCCN=C1C=CC(=C(c2ccc(NCCC#N)cc2)c2ccc(Cl)cc2Cl)C=C1`: the T/C under setting [1] is 117 % of control.

In the case of `O=C(CCCCCNC(=O)OCc1ccccc1)Oc1ccc([N+](=O)[O-])cc1`, the T/C runs as follows: under setting [2], 101 % of control; under setting [3], 96 % of control; under setting [4], 94 % of control.

As to `O=[N+]([O-])c1ccc(/C=C/c2ccccc2)cc1`, the T/C by setting is: under setting [5], 104 % of control; under setting [2], 102 % of control; under setting [6], 100 % of control; under setting [3], 104 % of control; under setting [7], 98 % of control; under setting [4], 96 % of control.

Consider `CCOC(=O)CSCC(=O)C(C)(C)C`, for which the T/C is 98 % of control under setting [8], 98 % of control under setting [9] and 102 % of control under setting [10].

For the molecule `CSc1nc(Cl)cc(/N=C/N(C)C)n1`, the T/C reads like this: under setting [5], 102 % of control; under setting [6], 98 % of control.

For `COC(=O)Nc1nc2ccc(C3(c4ccc(F)cc4)OCCO3)cc2[nH]1`, the T/C was 96 % of control (endpoint: mean survival time, dose: 1.56 mg/kg/injection, schedule: Q01DX009 (ip), vehicle: saline); 91 % of control (endpoint: mean survival time, dose: 3.12 mg/kg/injection, schedule: Q01DX009 (ip), vehicle: saline); 90 % of control (endpoint: mean survival time, dose: 6.25 mg/kg/injection, schedule: Q01DX009 (ip), vehicle: saline); 104 % of control under setting [11]; 94 % of control and 104 % of control (endpoint: mean survival time, dose: 12.5 mg/kg/injection, schedule: Q01DX009 (ip), vehicle: saline); 106 % of control under setting [12]. The T/C is 105 % of control (endpoint: mean survival time, dose: 25.0 mg/kg/injection, schedule: Q01DX009 (ip), vehicle: saline); 120 % of control (endpoint: mean survival time, dose: 40.0 mg/kg/injection, schedule: Q04DX003 (ip), vehicle: saline); 115 % of control (endpoint: mean survival time, dose: 50.0 mg/kg/injection, schedule: Q04DX003 (ip), vehicle: saline); 151 % of control and 152 % of control (endpoint: mean survival time, dose: 60.0 mg/kg/injection, schedule: Q04DX003 (ip), vehicle: saline); 181 % of control (endpoint: mean survival time, dose: 80.0 mg/kg/injection, schedule: Q04DX003 (ip), vehicle: saline); 181 % of control (endpoint: mean survival time, dose: 100.0 mg/kg/injection, schedule: Q04DX003 (ip), vehicle: saline). Further, the T/C runs as follows: (endpoint: mean survival time, dose: 150.0 mg/kg/injection, schedule: Q01DX009 (oral), vehicle: saline) 156 % of control; under setting [6], 87 % of control; (endpoint: mean survival time, dose: 200.0 mg/kg/injection, schedule: Q01DX009 (oral), vehicle: saline) 156 % of control.

Take `COC(=O)c1cc(C)c(C)cc1NC1OC(CO)C(O)C1O` (configuration not stated): the T/C runs as follows: (endpoint: mean survival time, dose: 100.0 mg/kg/injection, schedule: Q01DX001 (ip), vehicle: saline) 91 % of control; (endpoint: mean survival time, dose: 200.0 mg/kg/injection, schedule: Q01DX001 (ip), vehicle: saline) 89 % of control; (endpoint: mean survival time, dose: 400.0 mg/kg/injection, schedule: Q01DX001 (ip), vehicle: saline) 86 % of control.

Regarding `C=CCC1(CO)CCCCC1O` (configuration not stated), the T/C is 96 % of control under setting [1]; 100 % of control (endpoint: mean survival time, dose: 200.0 mg/kg/injection, schedule: Q04DX002 (ip), vehicle: saline with Tween-80); 92 % of control (endpoint: mean survival time, dose: 400.0 mg/kg/injection, schedule: Q04DX002 (ip), vehicle: saline with Tween-80).

As to `COc1cc2c(c(OC)c1OC)-c1ccc(SC)c(=O)cc1[C@@H](NC(=O)NCCCl)CC2`, the T/C (endpoint: mean survival time, dose: 1.56 mg/kg/injection, schedule: Q01DX005 (ip), vehicle: water) is 103 % of control; the T/C (endpoint: mean survival time, dose: 3.13 mg/kg/injection, schedule: Q01DX005 (ip), vehicle: water) is 103 % of control; the T/C (endpoint: mean survival time, dose: 6.25 mg/kg/injection, schedule: Q01DX005 (ip), vehicle: water) was 122 % of control; the T/C (endpoint: mean survival time, dose: 6.25 mg/kg/injection, schedule: Q01DX009 (ip), vehicle: water) is 123 % of control; the T/C (endpoint: mean survival time, dose: 12.5 mg/kg/injection, schedule: Q01DX005 (ip), vehicle: water) is 117 % of control; the T/C (endpoint: mean survival time, dose: 12.5 mg/kg/injection, schedule: Q01DX009 (ip), vehicle: water) is 123 % of control.

On to `C[n+]1c(/C=N/NC(N)=S)ccc2ccccc21`, for which the T/C reads like this: (endpoint: mean survival time, dose: 6.25 mg/kg/injection, schedule: Q01DX009 (ip), vehicle: saline with Tween-80) 102 % of control; under setting [11], 106 % of control; under setting [12], 108 % of control; under setting [13], 100 % of control; under setting [5], 91 % of control; under setting [6], 94 % of control. The T/C (endpoint: median survival time, dose: 6.25 mg/kg/injection, schedule: Q01DX009 (ip), vehicle: saline with Tween-80) is 100 % of control; the T/C (endpoint: median survival time, dose: 12.5 mg/kg/injection, schedule: Q01DX009 (ip), vehicle: saline with Tween-80) is 100 % of control; the T/C (endpoint: median survival time, dose: 25.0 mg/kg/injection, schedule: Q01DX009 (ip), vehicle: saline with Tween-80) was 96 % of control; the T/C (endpoint: median survival time, dose: 50.0 mg/kg/injection, schedule: Q01DX009 (ip), vehicle: saline with Tween-80) is 96 % of control; the T/C (endpoint: median survival time, dose: 100.0 mg/kg/injection, schedule: Q01DX009 (ip), vehicle: saline with Tween-80) was 101 % of control.

Regarding `C#CC(C)(C)OCC(CCl)OC(N)=O` (configuration not stated), the T/C under setting [12] was 97 % of control, the T/C under setting [13] was 97 % of control, the T/C under setting [5] is 100 % of control and the T/C under setting [6] is 102 % of control.

For the molecule `Nc1ncnc2nc(SCc3cccc([N+](=O)[O-])c3)[nH]c12`, the T/C is 96 % of control under setting [8], 90 % of control under setting [9] and 90 % of control under setting [10].

Regarding `COc1ccc(CC(=O)O)cc1OC` (tested in a mixture with another compound), the T/C reads like this: under setting [5], 96 % of control; (endpoint: mean survival time, dose: 100.0 mg/kg/injection, schedule: Q04DX003 (ip), vehicle: saline sonified) 101 % of control; under setting [6], 98 % of control; (endpoint: mean survival time, dose: 200.0 mg/kg/injection, schedule: Q04DX003 (ip), vehicle: saline sonified) 101 % of control; under setting [7], 102 % of control; (endpoint: mean survival time, dose: 400.0 mg/kg/injection, schedule: Q04DX003 (ip), vehicle: saline sonified) 96 % of control.

Take `CC1=CCCC2(CCC3(C)CC32)C1(C)C` (configuration not stated): the T/C was 98 % of control (endpoint: mean survival time, dose: 100.0 mg/kg/injection, schedule: Q04DX003 (ip), vehicle: acetone); 102 % of control (endpoint: mean survival time, dose: 200.0 mg/kg/injection, schedule: Q04DX003 (ip), vehicle: acetone); 110 % of control (endpoint: mean survival time, dose: 400.0 mg/kg/injection, schedule: Q04DX003 (ip), vehicle: acetone).
